Assay results reported in US20070048234A1, “COMPOSITIONS AND METHODS FOR TREATING ACNE” (REVANCE THERAPEUTICS, INC., priority 2005, published 2007).
Where a name gives a salt, the structure may show the parent alone.

Experiments:
[1] = topical application; cited from earlier work
[2] = when topically applied; cited from earlier work
[3] = test system: propionibacterium acnes (P. Acnes); conditions: compared with other medications on the market, prescription or otherwise; cited from earlier work
acne lesion = experiment: topical multi-step treatment of an acne lesion (vasoconstricting composition, then anti-acne agent); assay type: in vivo; conditions: upon topical application of the vasoconstricting composition to the acne lesion
Source text: (§1) This example provides a two step treatment for acne. The first step involves topically applying a vasoconstricting composition to the acne lesion to be treated. Suitable vasoconstricting compositions include tetrahydrozoline HCl 0.05%, naphazoline HCl 0.03%, or oxymetazoline HCl 0.025% in an aqueous base containing HPC to increase the viscosity for ease of application. Upon application of the vasoconstricting composition, the redness and swelling of the acne lesion diminishes, making the acne lesion less noticeable. After about 5 minutes, a second step is performed which involves topically applying 5% benzoyl peroxide 5% in an oil-in water moisturizer base. In this example, the benzoyl peroxide 5% is tinted to match the skin tone of the user, but this tinting is optional.
as §1, with “three-step nighttime” for “two step”, “peroxide” for “peroxide 5%”, “The acne lesion is then covered with a patch that includes silicone on” for “In this example,”, “skin-side” for “benzoyl peroxide 5% is tinted to match the skin tone”, “patch. The patch remains in place overnight and” for “user, but this tinting”, “removed in the morning.” for “optional.”
The following night, the three-step acne treatment is repeated.
This example provides a three-step acne treatment that is suitable for daytime use. The first step involves topically applying a vasoconstricting composition to the acne lesion to be treated. Suitable vasoconstricting compositions include tetrahydrozoline HCl 0.05%, naphazoline HCl 0.03%, or oxymetazoline HCl 0.025% in an aqueous base containing HPC to increase the viscosity for ease of application. […]

SMILES	flux into the skin [1]	share of the population that experiences skin allergies [2]	kills propionibacterium acnes (P. Acnes) [3]	redness and swelling of the acne lesion (acne lesion)
O=C(OOC(=O)c1ccccc1)c1ccccc1 [benzoyl peroxide]	high	about 10%	better than any other medication on the market	–
c1ccc2c(CC3=NCCN3)cccc2c1 [naphazoline HCl 0.03%, naphazoline HCl]	–	–	–	diminishes
Cc1cc(C(C)(C)C)c(O)c(C)c1CC1=NCCN1 [oxymetazoline HCl 0.025%, oxymetazoline HCl]	–	–	–	diminishes
c1ccc2c(c1)CCCC2C1=NCCN1 (stereo not drawn) [tetrahydrozoline HCl 0.05%, tetrahydrozoline HCl]	–	–	–	diminishes
